These results are taken from US10500167B2, “Droplet-embedded microfibers, and methods and devices for preparing and using same” (TRUSTEES OF PRINCETON UNIVERSITY, priority 2014, dated 2019).

A short description of data set [1]: retention and release of dissolved compounds from hydrophobic PEG-DA droplet-in-fibers. The class given is physicochemical.
From the text: FIG. 18 illustrates hydrophobic droplet-in-fibers wrapped around needles immersed in water. On the left, the fiber precursor solution contained 76 vol % PEG250DA, 20 vol % PEG700DA and 4 vol % photoinitiator. On the right, the fiber precursor solution contained 96 vol % PEG250DA and 4 vol % photoinitiator. Both fibers contained aqueous droplets with 1 wt % erioglaucine (blue dye).
A short description of data set [2]: retention and selective release of cargo from alginate-in-oil-in-alginate fibers. The class given is physicochemical.
From the text: The concentration of alginate-PVA solution in the inner alginate compartment was kept the same as the alginate fiber. As for the cargos, 0.5% (v/v) 200 nm orange fluorescent particles (FluoSpheres, Invitrogen), 1% (w/v) FITC conjugated BSA, or 0.04% (v/v) of 190 nm Dragon Green fluorescent particles (Uniform Dyed Microspheres, Bangs Laboratories, Inc.) were mixed with the alginate solution. For water-based magnetic particles, 2% (v/v) of 1 μm-magnetic polystyrene particles were mixed in the alginate solution. Chemicals not indicated with vendors were purchased from Sigma-Aldrich.
Multicompartment fibers were collected as suspensions in DI water or wound between two rotating needles controlled by a motor (Barnant Motor Mixer, Model No. 700-5412). […] For selective dissolution of the cargos from the oil compartment of the fibers, ethanol (Reagent alcohol, BDH) was added to the fiber suspensions. The de-cross-linking agent, 160 mM sodium citrate (Na3C6H5O7, Sigma-Aldrich) in DI water was used as calcium chelator to degrade the alginate fiber or inner alginate particles.
As a model particle cargo, 200 nm fluorescent nanoparticles were added to the inner alginate particle to produce fluorescent core microfibers (FIG. 2, panel a, and FIG. 8, panel a).
As a non-limiting example, ethanol was used to affect oil phase removal. The oil phase, which was a solution of mineral oil, 5% (v/v) undecanol, and 2 wt % Span 80 surfactant, was slightly miscible with ethanol, and thus was able to slowly escape the oil microcompartments in the fiber in the presence of ethanol. Alginate-in-oil-in-alginate fibers were prepared with 0.3 mg·mL^−1 of a lipophilic fluorescent dye, Nile Red, in the oil droplets, and green fluorescent nanoparticles of 190 nm diameter in the inner alginate particles; one fiber sample was immersed in water, and the second fiber sample was immersed in an ethanol/water solution.
The nature of data set [3]: dissolution of eugenol droplets embedded in the fiber in water. The class given is physicochemical. The note with it: 100% eugenol droplets. The method, then:
(§1) For the oil droplet compartment, mineral oil with 2 wt % Span 80 was used in general. For solidifying inner alginate droplets to prevent them from escaping the oil compartment, 5% (v/v) of calcium chloride-saturated undecanol was mixed with the oil solution. The concentrations of the cargos to be carried in the oil compartment were 0.3 mg·mL^−1 for Nile red, 0.8% (v/v) for magnetic particles in oil-phase (EMG 909, FerroTec), and 10 and 20% (v/v) for eugenol. […] The final concentration of undecanol in the oil solution was 5% (v/v). In the case of using just eugenol for the oil compartment, 2 wt % Span 80 was added to eugenol to form stable droplets.
The previously described experiments were conducted with mineral oil as the oil phase.

For data set [4], the system named is Escherichia coli (E. Coli, S17-1λpir). Description: antibacterial effect of eugenol oil droplets on E. coli cells encapsulated in alginate fibers. The class given is cell-based.
From the text: For the alginate fiber, 0.5-1 wt % sodium alginate (from brown algae) with 0.1-0.25 wt % poly(vinyl alcohol) (PVA; Molecular weight, 31,000-50,000) dissolved in DI water or PBS was used. PVA is a biocompatible polymer. Also, after collecting the fibers, they were rinsed with DI water or PBS, and stored in DI water to allow any water-soluble components in the fiber to be removed. […] For cell encapsulation, the alginate-PVA solution was filtered through 0.22 μm pore-sized filter prior to mixing with cells. The mammalian cells, NIH/3T3 mouse fibroblast cells (ATCC), were cultured in Dulbecco's modified Eagle medium (DMEM; ATCC) supplemented with 10% (v/v) calf bovine serum and 1% (v/v) penicillin. The cells were prepared to be 1-2×10^5 cells·mL^−1 in the final alginate solution. For encapsulating mammalian cells in the alginate fiber, a solution of 0.5 wt % alginate with 0.1 wt % PVA dissolved in PBS was used. The bacterial cells were Escherichia coli (E. Coli, S17-1λpir) that express green fluorescent protein (GFP) from a plasmid, induced by isopropyl β-D-1-thiogalactopyranoside (IPTG). More details on the cells, including plasmid construction, is recited in Drescher, et al., 2014, Curr. Biol. 24:50. The E. coli cells were prepared in the alginate solution to be 4-5×10^6 cells·mL^−1. For encapsulating bacterial cells, a solution of 1 wt % alginate with 0.25 wt % PVA dissolved in PBS was used.
as §1
Multicompartment fibers were collected as suspensions in DI water or wound between two rotating needles controlled by a motor (Barnant Motor Mixer, Model No. 700-5412). Fibers encapsulating the fibroblast cells were collected in DMEM supplemented with 10% calf bovine serum and 1% penicillin, and stored in the 5% CO2-humidified incubator at 37° C. To test the cell viability inside the multicompartment fibers, 2 μM of calcein AM and 4 μM of ethidium-homodimer-1 (EthD-1) from LIVE/DEAD Viability/Cytotoxicity kit for mammalian cells (Molecular Probes) were applied in the DMEM 1 hour prior to the observation under a fluorescent microscope. The cell viability was analyzed with the green (calcein AM) and red (EthD-1) fluorescence images using image analysis software, ImageJ (NIH). E. coli-encapsulated fibers were either collected in LB media containing 1 mM IPTG and 100 μg·mL^−1 Kanamycin (kanamycin sulfate; Fisher). For selective dissolution of the cargos from the oil compartment of the fibers, ethanol (Reagent alcohol, BDH) was added to the fiber suspensions. The de-cross-linking agent, 160 mM sodium citrate (Na3C6H5O7, Sigma-Aldrich) in DI water was used as calcium chelator to degrade the alginate fiber or inner alginate particles.
The growth of bacterial cells, Escherichia coli (E. coli), in the oil droplet-in-alginate fibers (FIG. 2, panel d) was also tested. The E. coli cells encapsulated in the fibers were suspended in the LB medium for 21 hours, and grew well inside the fibers where they completely surrounded the oil droplets (FIG. 9). The oil microcompartments of the fiber can be used to encapsulate hydrophobic drugs or antibacterial chemicals to test their effects on the cells. For example, eugenol is an antibacterial compound found in clove oil. Eugenol was dissolved in the oil compartment, in a solution comprising mineral oil with 5% (v/v) undecanol and 2 wt % Span 80. […]

Regarding `CCN(Cc1cccc(S(=O)(=O)[O-])c1)c1ccc(C(=C2C=CC(=[N+](CC)Cc3cccc(S(=O)(=O)[O-])c3)C=C2)c2ccccc2S(=O)(=O)[O-])cc1.[Na+].[Na+]` [erioglaucine], the “retention of dissolved compound in aqueous droplets” value in data set [1] (PEG-DA (MW=250 g/mol) fiber with 4 vol % photoinitiator) was “remained within the aqueous compartments”. Further, the “release of dye from fiber” value in data set [1] (fiber precursor 76 vol % PEG250DA, 20 vol % PEG700DA, 4 vol % photoinitiator, immersed in water) is listed as “allowed the blue dye to diffuse out of the fiber”.

In the case of `CCN(CC)c1ccc2nc3c4ccccc4c(=O)cc-3oc2c1` [Nile Red], the “red fluorescence in the fibers” value in data set [2] (ethanol/water solution, after a longer time) is on record as “no further red fluorescence was observed in the fibers”. In addition, in data set [2] (fiber immersed over 18 hours in water), the “red fluorescence in the oil microcompartments” value is given as “red fluorescence of the Nile Red dye in the oil microcompartments was observed”.

For the compound `C=CCc1ccc(O)c(OC)c1` [eugenol], the “diameter of eugenol droplets embedded in the fiber after dissolution” value in data set [3] (over a period of 2 hours) is listed as 50 μm. For the same compound, in data set [3] (start), the “diameter of eugenol droplets embedded in the fiber, initial” value turned out to be 120 μm. In addition, the “growth of E. coli around the oil droplets” value in data set [4] (20% (v/v) eugenol droplets, after 3 hours) is on record as “slowed down around the oil droplets”. Besides, in data set [4] (20% (v/v) eugenol droplets, after 15 hours), the “growth of E. coli around the rim of the droplets” value is recorded as “no growth was observed around the rim of the droplets”. Further, in data set [4] (20% (v/v) eugenol-oil droplets), the “cell population around the oil droplets” value is reported as “significant decrease in the cell population around the oil droplets”. The “cell growth around the eugenol droplets compared with oil droplets with no eugenol” value in data set [4] (eugenol up to 10% (v/v) in oil droplets) is “no significant difference in the cell growth”. Besides, the “overall growth rate of E. coli inside the fiber” value in data set [4] (eugenol up to 10% (v/v) in oil droplets, qualitative) is recorded as “reduction in the overall growth rate of E. coli”. For the same compound, the “growth of GFP-expressing E. coli in fiber” value in data set [4] (up to 10% (v/v) eugenol droplets, after 15 hours) was “grew around the oil droplets and covered most of the fibers completely”.

As for “fluorescein isothiocyanate (FITC) conjugated bovine serum albumin [FITC-conjugated BSA]”, in data set [2] (in inner alginate particle, fiber stored in DI water), the “time over which fluorescence of encapsulated cargo was observed” value is given as “at least 20 hours”.
